Key:
[1] = Pharmacokinetic parameters in SD rats; assay type: in vivo, Sprague-Dawley rats; settings: single oral 3 mg/kg in 30% PEG400, plasma; for CL/F / AUC(0-t): Sprague-Dawley, rat; for AUC(0-t): read-out: AUC0-t (mean ± SD)
Description: The pharmacokinetic study of each test compound was conducted in 4 Sprague-Dawley rats following a single oral administration of 3 mg/kg of the compound. The dose was prepared by dissolving test article in appropriate volume of 30% PEG400. The plasma samples were collected from the orbital plexus at 0.083, 0.25, 0.50, 1.0, 2.0, 4.0, 6.0, 8.0, 12 and 24 hours post dose, and the plasma concentrations were determined by a developed LC-MS/MS method.

[2] = target: T1, CYP1A2 (Homo sapiens, UniProt P05177); assay: P450-Glo CYP screening kit, CYP1A2 inhibition; assay type: in vitro ADME; settings: luminescence, read-out: IC50 1A2
T1 construct: purchased Promega
T1 sequence (P05177 1-516): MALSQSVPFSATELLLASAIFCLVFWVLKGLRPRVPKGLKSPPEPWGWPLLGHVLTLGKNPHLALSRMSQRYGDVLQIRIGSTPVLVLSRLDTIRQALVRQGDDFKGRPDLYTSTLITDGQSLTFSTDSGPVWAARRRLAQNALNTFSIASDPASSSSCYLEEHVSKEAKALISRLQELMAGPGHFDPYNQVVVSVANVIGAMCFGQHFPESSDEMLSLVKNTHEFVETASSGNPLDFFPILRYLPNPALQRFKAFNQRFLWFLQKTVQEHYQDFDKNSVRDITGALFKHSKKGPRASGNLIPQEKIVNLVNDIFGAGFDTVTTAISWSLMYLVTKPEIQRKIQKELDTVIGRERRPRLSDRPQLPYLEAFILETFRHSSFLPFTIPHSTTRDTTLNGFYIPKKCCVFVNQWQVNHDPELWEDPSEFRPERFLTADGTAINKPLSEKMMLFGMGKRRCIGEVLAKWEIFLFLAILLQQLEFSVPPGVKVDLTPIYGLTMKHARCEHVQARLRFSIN
Text: (§1) P450-Glo™ CYP Screening Kits for CYP1A2, CYP3A4 and CYP2C19 were purchased from Promega. […] Luminescence was quantified using a Victor 3 spectrophotometer (PerkinElmer).

[3] = target: T2, CYP2C19 (Homo sapiens, UniProt P33261); assay: P450-Glo CYP screening kit, CYP2C19 inhibition; assay type: in vitro ADME; settings: luminescence, read-out: IC50 2C19
T2 construct: purchased Promega
T2 sequence (P33261 whole entry): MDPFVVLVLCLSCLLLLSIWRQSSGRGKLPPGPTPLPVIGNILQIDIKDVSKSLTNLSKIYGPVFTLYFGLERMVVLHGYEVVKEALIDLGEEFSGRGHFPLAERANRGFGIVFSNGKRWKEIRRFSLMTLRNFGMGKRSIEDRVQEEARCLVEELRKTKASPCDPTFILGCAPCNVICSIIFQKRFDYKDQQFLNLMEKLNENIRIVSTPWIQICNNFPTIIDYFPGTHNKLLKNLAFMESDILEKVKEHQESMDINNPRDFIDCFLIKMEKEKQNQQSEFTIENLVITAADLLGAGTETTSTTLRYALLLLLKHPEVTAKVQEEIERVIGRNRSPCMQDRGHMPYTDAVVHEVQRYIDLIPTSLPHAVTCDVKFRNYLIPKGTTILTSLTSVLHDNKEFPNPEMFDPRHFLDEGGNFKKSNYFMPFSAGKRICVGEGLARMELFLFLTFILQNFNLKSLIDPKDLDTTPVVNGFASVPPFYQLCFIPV
Text: as §1

[4] = Metabolism in SD rats: distribution of metabolites in urine; assay type: in vivo; settings: male SD rats, 50 mg/kg oral, five consecutive days, HPLC
Description: Each test compound was dissolved in 30% PEG400 and administered orally to male SD rats by gavages at the dose level of 50 mg/kg (when using co-crystals, the weight calculation was based on free drug) for five consecutive days. Control rats were given 30% PEG400 only. All rats were housed in metabolic cages individually. Food and water were supplied ad libitum. Clinical observations (with attention to diarrhea symptoms) were performed twice daily. Food and water consumption were determined daily. Urine was collected pre-determined intervals: pre-dose, 0-4 hours, 4-8 hours, and 8-24 hours post-dose. Metabolites were analyzed and identified by LC/MS. The structures of the metabolites were confirmed by re-synthesis or isolation from the urine by preparative HPLC and NMR analysis. On day 6, all animals were sacrificed and gross necropsy was performed. The urine from two rats for each test compound was collected and pooled. The samples were diluted (1 mL urine in 4 mL of methanol) and analyzed by LC-MS: Waters 2695 Separations Module equipped with a Waters 2996 Photodiode Array Detector and a Waters Micromass ZQ Detector; Waters XTerra C18 3.5 μm, 20 mm×2.1 mm column, 1.0 mL/min, detection at 190-400 nm; 1.7 min gradient 10-50% A, followed by 1.8 min gradient 50-95% A, hold 1 min at 95% A; solvent A: 100% acetonitrile+0.045% formic acid; solvent B: Milli-Q water+0.1% formic acid. The urine samples were analyzed from 0-4 hours, 4-8 hours, 8-24 hours and 0-24 hours after administration. The ratio of metabolites was highly consistent within each time for each rat. The metabolites were identified by mass then re-synthesized to confirm their identity and the relative distribution was assayed using HPLC. […] See also FIGS. 1, 2A-2C, 3A-3D, and 4A-4C.

[5] = test system: beagle dogs; assay: Urinary glucose excretion in beagle dogs; assay type: in vivo; settings: 0.03 mg/kg oral, glucose 2 g/kg 1 h post dose; for Urinary Glucose Excretion in Dogs, 0-8 h (mean ± SD): 0-8 h (Table 4); for Urinary Glucose Excretion in Dogs, 0-24 h (mean ± SD): 0-24 h (Table 4)
Description: Each test compound was dissolved in 10% PEG400 and administered orally to overnight-fasted beagle dogs by gavage at the dose level of 0.03 mg/kg. Control dogs were given 10% PEG400 only. One hour post dosing, glucose solution (2 g/kg, 5 mL/kg) was administered by oral gavage. Urine was collected within metabolic cages from 0 to 8 hours, and 8 to 24 hours post-dosing for urine volume and glucose measurement. Food was removed 16 hours before dosing and then provided 3 hours after dosing. Water was supplied ad libitum. The concentration of urinary glucose was determined at 8 hours and 24 hours post-dose using a biochemistry analyzer.

[6] = target: T3, CYP3A4 (Homo sapiens, UniProt P08684); assay: P450-Glo CYP screening kit, CYP3A4 inhibition; assay type: in vitro ADME; settings: luminescence, read-out: IC50 3A4
T3 construct: purchased Promega
T3 sequence (P08684 whole entry): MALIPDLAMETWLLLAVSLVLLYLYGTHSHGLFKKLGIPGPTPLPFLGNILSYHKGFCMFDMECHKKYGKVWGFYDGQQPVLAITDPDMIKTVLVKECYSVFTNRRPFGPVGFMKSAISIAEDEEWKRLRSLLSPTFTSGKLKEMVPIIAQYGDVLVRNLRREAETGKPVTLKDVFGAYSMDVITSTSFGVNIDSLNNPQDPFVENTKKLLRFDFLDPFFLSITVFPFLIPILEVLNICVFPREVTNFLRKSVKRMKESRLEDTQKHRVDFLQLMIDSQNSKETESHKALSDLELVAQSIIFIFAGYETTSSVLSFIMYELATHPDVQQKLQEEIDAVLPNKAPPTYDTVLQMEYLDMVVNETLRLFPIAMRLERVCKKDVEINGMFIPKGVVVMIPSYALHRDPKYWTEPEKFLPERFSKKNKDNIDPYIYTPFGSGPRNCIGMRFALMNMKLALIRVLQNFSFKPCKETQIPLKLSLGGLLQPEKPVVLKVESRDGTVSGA
Text: as §1

SMILES	CL/F [1] [mL/min/kg]	AUC(0-t) [1] [ng·h/mL]	Cmax (mean ± SD) [1] [ng/mL]	t1/2 (mean ± SD) [1] [h]	tmax (mean ± SD) [1] [h]	IC50 [2] [µM]	IC50 [3] [µM]	Distribution of Metabolites in Urine (% of total), Peak 1 (Parent) [4] [%]	Urinary Glucose Excretion in Dogs, 0-8 h (mean ± SD) [5] [mg]	Urinary Glucose Excretion in Dogs, 0-24 h (mean ± SD) [5] [mg]	IC50 [6] [µM]	Urinary Glucose Excretion in Dogs, 8-24 h (mean ± SD) ([5]; 8-24 h (Table 4)) [mg]
[2H]C([2H])([2H])C([2H])([2H])Oc1ccc(Cc2cc([C@@H]3O[C@H](CO)[C@@H](O)[C@H](O)[C@H]3O)ccc2Cl)cc1 [24c, (2S,3R,4R,5S,6R)-2-(4-chloro-3-(4-(ethoxy-d5)benzyl)phenyl)-6-(hydroxymethyl)tetrahydro-2H-pyran-3,4,5-triol]	2.22	21200 ± 1880	2285 ± 697	6.05 ± 0.85	1.38 ± 0.75	500 to 1000	168	45	3472 ± 622	11964 ± 2190	500 to 1000	–
[2H]C([2H])(c1ccc(OCC)cc1)c1cc([C@@H]2O[C@H](CO)[C@@H](O)[C@H](O)[C@H]2O)ccc1Cl [compound 9, (2S,3R,4R,5S,6R)-2-(4-chloro-3-((4-ethoxyphenyl)methyl-d2)phenyl)-6-(hydroxymethyl)tetrahydro-2H-pyran-3,4,5-triol]	3.2	15300 ± 2380	1830 ± 365	5.14 ± 1.28	1.69 ± 0.59	~500	50 to 100	55	3396 ± 442	10228 ± 895	~1000	6832 ± 2555
CCOc1ccc(Cc2cc([C@@H]3O[C@H](CO)[C@@H](O)[C@H](O)[C@H]3O)ccc2Cl)cc1 [Ref A, (2S,3R,4R,5S,6R)-2-(4-chloro-3-(4-ethoxybenzyl)phenyl)-6-(hydroxymethyl)tetrahydro-2H-pyran-3,4,5-triol, reference compound]	4.5	11300 ± 2600	1603 ± 425	4.52 ± 0.98	0.88 ± 0.75	426	61.1	40	–	–	~400	–

— patent US9061060B2, “Deuterated benzylbenzene derivatives and methods of use” (Theracos Inc., priority 2008, dated 2015)
